The test system of experiment [1] is H929 human cancer cell lines. The experiment in a line: Cellular viability / proliferation (Cell TiterGlo, 72 h). The experiment is classed as cell-based. The procedure, abridged: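 Top dose 50 μM, serially diluted 2-fold, applied one day after seeding (1,000 cells/well, 10% FBS), DMSO below 1%.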
For orientation: In ATP-based viability assays light output follows the ATP content of the culture.

Another experiment addresses Mcl-1 (Homo sapiens (Human), UniProt Q07820). Kind of experiment: Fluorescence polarization anisotropy (FPA) competition assay, FITC-Bak or FITC-Bim BH3 peptide. The experiment is classed as binding. The settings on record: read-out: Ki for Inhibition of Mcl-1 by FPA assay.
The mark [2] stands for this setting: Homo sapiens, NCI-H929, 72 h, read-out: GI50 on cellular proliferation of H929 human cancer cell lines, H929 cells, 72 h, Cell TiterGlo, 10% FBS.
Setting [3] is: read-out: GI50 on cellular proliferation of H929 human cancer cell lines, H929 cells, 72 h, Cell TiterGlo, 10% FBS.

Read-outs that look alike come from different tables or passages of the source. Where only a bound is given, the exact number is not on record here.

Sequence of Mcl-1 (Q07820 172-327): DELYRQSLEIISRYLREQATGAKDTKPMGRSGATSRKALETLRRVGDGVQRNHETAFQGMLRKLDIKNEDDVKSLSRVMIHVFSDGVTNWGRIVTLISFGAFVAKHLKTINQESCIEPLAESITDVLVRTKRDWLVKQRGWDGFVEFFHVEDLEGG

On to `Cc1cc(OCCCc2c3n(c4c(-c5c(C)nn(C)c5C)c(Cl)ccc24)[C@H](C)CN(c2cccc4c(Cl)cc(C(=O)O)nc24)C3=O)cc(C)c1Cl` [Example 230, (R)-4-Chloro-8-(7-chloro-10-(3-(4-chloro-3,5-dimethylphenoxy)propyl)-4-methyl-1-oxo-6-(1,3,5-trimethyl-1H-pyrazol-4-yl)-3,4-dihydropyrazino[1,2-a]indol-2(1H)-yl)quinoline-2-carboxylic acid], for which, in experiment [1] (setting [2]), the GI50 came to 0.89 µM. In addition, the Ki on Mcl-1 was less than 0.001 µM.
On to `Cc1cc(OCCCc2c3n(c4c(-c5c(C)nn(C)c5C)c(Cl)ccc24)[C@H](C)CN(c2cn(COCC[Si](C)(C)C)c4ccc(C(=O)O)cc24)C3=O)cc(C)c1Cl` [Example 231, (R)-3-(7-Chloro-10-(3-(4-chloro-3,5-dimethylphenoxy)propyl)-4-methyl-1-oxo-6-(1,3,5-trimethyl-1H-pyrazol-4-yl)-3,4-dihydropyrazino[1,2-a]indol-2(1H)-yl)-1-((2-(trimethylsilyl)ethoxy)methyl)-1H-indole-5-carboxylic acid], for which the GI50 in experiment [1] (setting [2]) is 2.7 µM. Also, the Ki at Mcl-1 came out at 0.0012 µM.
With `Cc1cc(OCCCc2c3n(c4c(-c5c(C)nn(C)c5C)c(Cl)ccc24)[C@H](C)CN(c2cc(Cl)cc4cc(C(=O)O)oc24)C3=O)cc(C)c1Cl` [Example 232, (R)-5Chloro-7-(7-chloro-10-(3-(4-chloro-3,5-dimethylphenoxy)propyl)-4-methyl-1-oxo-6-(1,3,5-trimethyl-1H-pyrazol-4-yl)-3,4-dihydropyrazino[1,2-a]indol-2(1H)-yl)benzofuran-2-carboxylic acid], the GI50 in experiment [1] (setting [2]) turned out to be 4 µM. In addition, the Ki on Mcl-1 was less than 0.001 µM.
For `Cc1cc(OCCCc2c3n(c4c(-c5c(C)nn(C)c5C)c(Cl)ccc24)[C@H](C)CN(c2cccc4cc(C(=O)O)[nH]c24)C3=O)cc(C)c1Cl` [Example 233, 7-[(4R)-7-chloro-10-[3-(4-chloro-3,5-dimethyl-phenoxy)propyl]-4-methyl-1-oxo-6-(1,3,5-trimethylpyrazol-4-yl)-3,4-dihydropyrazino[1,2-a]indol-2-yl]-1H-indole-2-carboxylic acid] the same measures were 1.4 µM and less than 0.001 µM.
The corresponding values for `Cc1cc(OCCCc2c3n(c4c(-c5c(C)nn(C)c5C)c(Cl)ccc24)[C@H](C)CN(c2cccc4ccn(C)c24)C3=O)cc(C)c1Cl` [Example 234, (R)-7-Chloro-10-(3-(4-chloro-3,5-dimethylphenoxy)propyl)-4-methyl-2-(1-methyl-1H-indol-7-yl)-6-(1,3,5-trimethyl-1H-pyrazol-4-yl)-3,4-dihydropyrazino[1,2-a]indol-1(2H)-one] are 1.6 µM and less than 0.001 µM.
In the case of `Cc1cc(OCCCc2c3n(c4c(-c5c(C)nn(C)c5C)c(Cl)ccc24)[C@H](C)CN(c2cn(C)c4ccc(-c5nnn[nH]5)cc24)C3=O)cc(C)c1Cl` [Example 235, (R)-7-Chloro-10-(3-(4-chloro-3,5-dimethylphenoxy)propyl)-4-methyl-2-(1-methyl-5-(1H-tetrazol-5-yl)-1H-indol-3-yl)-&(1,3,5-trimethyl-1H-pyrazol-4-yl)-3,4-dihydropyrazino[1,2-a]indol-1(2H)-one], the GI50 in experiment [1] (H929 cells, 72 h, Cell TiterGlo, 10% FBS, read-out: GI50 on cellular proliferation of H929 human cancer cell lines) came to 0.24 µM. Further, the Ki at Mcl-1 is less than 0.001 µM.
In the case of `Cc1cc(OCCCc2c3n(c4c(-c5c(C)nn(C)c5C)c(Cl)ccc24)[C@H](C)CN(c2cn(C)c4cc(-c5nn[nH]n5)ccc24)C3=O)cc(C)c1Cl` [Example 236, (R)-7-chloro-10-(3-(4-chloro-3,5-dimethylphenoxy)propyl)-4-methyl-2-(1-methyl-6-(2H-tetrazol-5-yl)-1H-indol-3-yl)-6-(1,3,5-trimethyl-1H-pyrazol-4-yl)-3,4-dihydropyrazino[1,2-a]indol-1(2H)-one], in experiment [1] (setting [2]), the GI50 amounted to 1.1 µM. Besides, the Ki on Mcl-1 is less than 0.001 µM.
In the case of `Cc1cc(OCCCc2c3n(c4c(-c5c(C)ncnc5C)c(Cl)ccc24)[C@H](C)CN(c2cccc4cc(C(=O)O)n(C)c24)C3=O)cc(C)c1Cl` [Example 238, 7-[(4R)-7-chloro-10-[3-(4-chloro-3,5-dimethyl-phenoxy)propyl]-6-(4,6-dimethylpyrimidin-5-yl)-4-methyl-1-oxo-3,4-dihydropyrazino[1,2-a]indol-2-yl]-1-methyl-indole-2-carboxylic acid], the GI50 in experiment [1] (setting [2]) was determined as 0.34 µM. For the same compound, the Ki at Mcl-1 was less than 0.001 µM.
For `COc1cc(C(=O)O)nc2c(N3C[C@@H](C)n4c(c(CCCOc5cc(C)c(Cl)c(C)c5)c5ccc(Cl)c(-c6c(C)nn(C)c6C)c54)C3=O)cccc12` [Example 239, (R)-8-(7-Chloro-10-(3-(4-chloro-3,5-dimethylphenoxy)propyl)-4-methyl-1-oxo-6-(1,3,5-trimethyl-1H-pyrazol-4-yl)-3,4-dihydropyrazino[1,2-a]indol-2(1H)-yl)-4-methoxyquinoline-2-carboxylic acid], the GI50 in experiment [1] (setting [2]) amounted to 1.8 µM. Besides, the Ki at Mcl-1 was less than 0.001 µM.
For `Cc1cc(OCCCc2c3n(c4c(-c5c(C)nn(C)c5C)c(Cl)ccc24)[C@H](C)CN(c2cn(CCC4CCOCC4)c4ccc(C(=O)O)cc24)C3=O)cc(C)c1Cl` [Example 240, (R)-3-(7-Chloro-10-(3-(4-chloro-3,5-dimethylphenoxy)propyl)-4-methyl-1-oxo-6-(1,3,5-trimethyl-1H-pyrazol-4-yl)-3,4-dihydropyrazino[1,2-a]indol-2(1H)-yl)-1-(2-(tetrahydro-2H-pyran-4-yl)ethyl)-1H-indole-5-carboxylic acid] the same measures were 1.9 µM and less than 0.001 µM.
With `Cc1cc(OCCCc2c3n(c4c(-c5c(C)nn(C)c5C)c(Cl)ccc24)[C@H](C)CN(c2cccc4cc(C(=O)O)n(Cc5ccccc5)c24)C3=O)cc(C)c1Cl` [Example 241, 1-Benzyl-7-[(4R)-7-chloro-10-[3-(4-chloro-3,5-dimethyl-phenoxy)propyl]-4-methyl-1-oxo-6-(1,3,5-trimethylpyrazol-4-yl)-3,4-dihydropyrazino[1,2-a]indol-2-yl]indole-2-carboxylic acid], the GI50 in experiment [1] (setting [2]) stood at 0.42 µM. Besides, on Mcl-1, the Ki was less than 0.001 µM.
With `Cc1cc(OCCCc2c3n(c4c(-c5c(C)nn(C)c5C)c(Cl)ccc24)[C@H](C)CN(c2cccc4cc(C(=O)O)[nH]c24)C3=O)cc(C)c1Cl` [Example 242, 7-[(4R)-7-chloro-10-[3-(4-chloro-3,5-dimethyl-phenoxy)propyl]-4-methyl-1-oxo-6-(1,3,5-trimethylpyrazol-4-yl)-3,4-dihydropyrazino[1,2-a]indol-2-yl]-1H-indole-2-carboxylic acid], the GI50 in experiment [1] (setting [3]) was found to be 1.3 µM. The Ki on Mcl-1 is less than 0.001 µM.
`Cc1cc(OCCCc2c3n(c4c(-c5c(C)nn(C)c5C)c(Cl)ccc24)[C@H](C)CN(c2cn(C)c4c(C#N)cc(C(=O)O)cc24)C3=O)cc(C)c1Cl` [Example 244, (R)-3-(7-Chloro-10-(3-(4-chloro-3,5-dimethylphenoxy)propyl)-4-methyl-1-oxo-6-(1,3,5-trimethyl-1H-pyrazol-4-yl)-3,4-dihydropyrazino[1,2-a]indol-2(1H)-yl)-7-cyano-1-methyl-1H-indole-5-carboxylic acid]: the GI50 in experiment [1] (setting [2]) turned out to be 0.4 µM. On Mcl-1, the inhibition constant (Ki) was less than 0.001 µM.
The corresponding values for `Cc1cc(OCCCc2c3n(c4c(-c5c(C)nn(C)c5C)c(Cl)ccc24)[C@H](C)CN(c2cccc4cc(C(=O)O)n(Cc5cccnc5)c24)C3=O)cc(C)c1Cl` [Example 245, 7-[(4R)-7-chloro-10-[3-(4-chloro-3,5-dimethyl-phenoxy)propyl]-4-methyl-1-oxo-6-(1,3,5-trimethylpyrazol-4-yl)-3,4-dihydropyrazino[1,2-a]indol-2-yl]-1-(3-pyridylmethyl)indole-2-carboxylic acid] are 0.9 µM and less than 0.001 µM.
Take `Cc1cc(OCCCc2c3n(c4c(-c5c(C)nn(C)c5C)c(Cl)ccc24)[C@H](C)CN(c2cccc4cc(C(=O)O)n(Cc5ccccn5)c24)C3=O)cc(C)c1Cl` [Example 247, 7-[(4R)-7-chloro-10-[3-(4-chloro-3,5-dimethyl-phenoxy)propyl]-4-methyl-1-oxo-6-(1,3,5-trimethylpyrazol-4-yl)-3,4-dihydropyrazino[1,2-a]indol-2-yl]-1-(2-pyridylmethyl)indole-2-carboxylic acid]: in experiment [1] (setting [3]), the GI50 is less than 0.2 µM. For the same compound, the Ki at Mcl-1 was less than 0.001 µM.
On to `Cc1cc(OCCCc2c3n(c4c(-c5c(C)nn(C)c5C)c(Cl)ccc24)[C@H](C)CN(c2cccc4cc(C(=O)O)n(Cc5ccncc5)c24)C3=O)cc(C)c1Cl` [Example 248, 7-[(4R)-7-chloro-10-[3-(4-chloro-3,5-dimethyl-phenoxy)propyl]-4-methyl-1-oxo-6-(1,3,5-trimethylpyrazol-4-yl)-3,4-dihydropyrazino[1,2-a]indol-2-yl]-1-(4-pyridylmethyl)indole-2-carboxylic acid], for which the GI50 in experiment [1] (setting [2]) is 0.57 µM. Moreover, at Mcl-1, the Ki was less than 0.001 µM.
For `Cc1cc(OCCCc2c3n(c4c(-c5c(C)nn(C)c5C)c(Cl)ccc24)[C@H](C)CN(c2cccc4cc(C(=O)O)n(Cc5ccccn5)c24)C3=O)cc(C)c1Cl` [Example 249, 7-[(4R)-7-chloro-10-[3-(4-chloro-3,5-dimethyl-phenoxy)propyl]-4-methyl-1-oxo-6-(1,3,5-trimethylpyrazol-4-yl)-3,4-dihydropyrazino[1,2-a]indol-2-yl]-1-(2-pyridylmethyl)indole-2-carboxylic acid], the GI50 in experiment [1] (setting [3]) was found to be 0.49 µM. In addition, at Mcl-1, the Ki is less than 0.001 µM.
On to `Cc1cc(OCCCc2c3n(c4c(-c5c(C)nn(C)c5C)c(Cl)ccc24)[C@H](C)CN(c2cn(C)c4c(C)c(C(=O)O)ccc24)C3=O)cc(C)c1Cl` [Example 250, (R)-3-(7-Chloro-10-(3-(4-chloro-3,5-dimethylphenoxy)propyl)-4-methyl-1-oxo-6-(1,3,5-trimethyl-1H-pyrazol-4-yl)-3,4-dihydropyrazino[1,2-a]indol-2(1H)-yl)-1,7-dimethyl-1H-indole-6-carboxylic acid], for which the GI50 in experiment [1] (setting [2]) came to 0.48 µM. Besides, the Ki on Mcl-1 is less than 0.001 µM.

Usually Ki stands for a dissociation constant, usually derived from enzyme kinetics or from competition with a known ligand.

For the origin of these results see patent US11596639B2, “Substituted indole Mcl-1 inhibitors” (Vanderbilt University, priority 2016, dated 2023).
